“And” between values parts separate entries of the source, which are not always exact repeats. Equal values may be shown once.
Experiments:
[1] = tested on: human peripheral blood mononuclear cells; test: Cytokine production by human PBMC (ELISA); assay type: cell-based; settings: PBMC of 7 healthy humans, 100 μg/ml, 48 h
In short: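 PBMC from 7 healthy donors, Ficoll-isolated; 1×10^6 cells incubated with 100 μg/ml oligonucleotide sequence for 48 h at 37 °C, 5% CO2. IL-1beta, IL-6, IL-10, IL-12 (p70 plus free p40) and TNF-alpha measured by ELISA in supernatant, expressed as fold increase over control cells.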

[2] = tested on: D-17 canine osteosarcoma cells; test: Inhibition of D-17 cell proliferation (MTT); assay type: cell-based; settings: 100 μg/ml, 48 h, 5×10^5 cells/ml
In short: (§1)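 D-17 osteosarcoma and CF-51 mammary cancer cells (5×10^5 cells/ml) incubated 48 h at 37° C, 5% CO2, with 100 μg/ml of 6-33 base GT-sequences or a 15 base ACG sequence versus untreated control. Proliferation by MTT reduction read at 570 nm.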

[3] = tested on: HL-60 human promyelocytic leukemia cells; test: Inhibition of HL-60 cell proliferation (MTT); assay type: cell-based; settings: 100 μg/ml, 48 h
Description: (§2) Cells were seeded in 6 (1 ml/well), 24 (0.5 ml/well) or 96 (0.1 ml/well) well flat-bottom microplates and were maintained at 37° C. in a 5% CO2 atmosphere. Unless stated otherwise, 2.5×10^5 cells/ml were incubated with 0 μg/ml (control) and 100 μg/ml (treated) of 2 to 45 base sequences containing A, C, G and T for 48 h.
(§3) Cell proliferation was measured using dimethylthiazol-diphenyl-tetrazolium (MTT) reduction (Mosman et al. J. Immunol. Methods 65:55, 1983). MTT was measured at a wavelength of 570 nm using a multiplate spectrophotometer reader (ELX800, Bio-TEK Instruments Inc., Winooski, Vt.).
HL-60 promyelocytic leukemia cells are a p53 mutated human suspension tumor model. HL-60 cells were incubated with 6 base GT sequences (Table 6).

[4] = tested on: LNCaP human prostate cancer cells; test: Inhibition of LNCaP cell proliferation (MTT); assay type: cell-based; settings: 100 μg/ml, 48 h, 5×10^5 cells/ml
In short: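 Cells (2.5×10^5 or 5×10^5 cells/ml) exposed to 100 μg/ml of 2–45 base A/C/G/T sequences, including 6-base GT sequences, versus untreated control, 48 h at 37 °C, 5% CO2. Proliferation read by MTT reduction at 570 nm.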

chimpanzee PBMCs = test: Cytokine production by chimpanzee PBMC (ELISA); assay type: cell-based; settings: PBMC of 4 healthy chimpanzees, 100 μg/ml, 48 h
In short: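 PBMCs from 4 healthy chimpanzees (1×10^6 cells) were incubated 48 h at 37 °C, 5% CO2 with 100 μg/ml of each 6-base sequence. Supernatant IL-10, IL-12 (p70 plus free p40) and TNF-alpha were measured by ELISA. Values are fold increase over untreated control cells.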

[5] = tested on: THP-1 human acute monocytic leukemia cells; test: Cytokine production by THP-1 cells (ELISA); assay type: cell-based; settings: THP-1, 1×10^6 cells, 100 μg/ml, 48 h; for ↑ IL-12 (fold increase treated vs control cells): p70 complex and free p40
In short: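 1×10^6 cells exposed to 100 μg/ml of each oligonucleotide sequence for 48 h at 37° C in 5% CO2, unless stated otherwise. Cytokines quantified in culture supernatant by ELISA, IL-12 assay detecting both p70 and free p40; values are fold increase over untreated control cells.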

[6] = tested on: Jurkat human leukemia T cells; test: Inhibition of Jurkat human leukemia T cell proliferation (MTT reduction); assay type: cell-based; settings: for % INHIBITION of Jurkat proliferation at suboptimal concentration: 5.0 μg/ml of each 6 base sequence, alone or two together; for % INHIBITION of Jurkat human leukemia T cell proliferation: 100 μg/ml sequence, 48 h, 2.5×10^5 cells/ml
In short: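 Jurkat cells at 2.5×10^5 cells/ml exposed to 100 μg/ml of 2–45-base A/C/G/T sequences (0 μg/ml control) for 48 h, 37° C, 5% CO2. Viability by MTT reduction read at 570 nm.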

[7] = Melting temperature (Tm) of sequences; assay type: physicochemical
[8] = tested on: CF-51 canine mammary gland cancer cells; test: Inhibition of CF-51 cell proliferation (MTT); assay type: cell-based; settings: 100 μg/ml, 48 h, 5×10^5 cells/ml
In short: as §1

[9] = tested on: EL-4 murine T lymphoma cells; test: Inhibition of EL-4 cell proliferation (MTT); assay type: cell-based; settings: 100 μg/ml, 48 h
In short: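 EL-4 cells at 2.5×10^5 cells/ml were exposed for 48 h at 37° C, 5% CO2, to 100 μg/ml of 2- to 45-base sequences of A, C, G and T, against untreated controls. Proliferation was read by MTT reduction at 570 nm.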

[10] = tested on: THP-1 human acute monocytic leukemia cells; test: Inhibition of THP-1 cell proliferation (MTT); assay type: cell-based; settings: 100 μg/ml, 48 h, 1.6×10^6 cells/ml
Description: as §2, §3
THP-1 acute monocytic leukemia cells are a p53 null human suspension tumor model. THP-1 cells (1.6×10^6 cells/ml) were incubated with 6 base GT sequences (Table 10).

| Sequence | IL-1 beta fold increase: mean +/− SD [1] | IL-6 fold increase: mean +/− SD [1] | IL-10 fold increase: mean +/− SD [1] | IL-12 fold increase: mean +/− SD [1] | % INHIBITION of D-17 canine osteosarcoma cell proliferation [2] | % INHIBITION of HL-60 human promyelocytic leukemia cell proliferation [3] | % INHIBITION of LNCaP human prostate cancer cell proliferation [4] | IL-10 fold increase: mean +/− SD (chimpanzee PBMCs) | IL-12 fold increase: mean +/− SD (chimpanzee PBMCs) | TNF-alpha fold increase: mean +/− SD (chimpanzee PBMCs) | ↑ IL-6 (fold increase treated vs control cells) [5] | ↑ IL-12 (fold increase treated vs control cells) [5] | % INHIBITION of Jurkat proliferation at suboptimal concentration [6] | % INHIBITION of Jurkat human leukemia T cell proliferation [6] | % INHIBITION of CF-51 canine mammary gland cancer cell proliferation [8] | % INHIBITION of EL-4 murine T lymphoma cell proliferation [9] | % INHIBITION of THP-1 human acute monocytic leukemia cell proliferation [10] | also measured |
| --- | --- | --- | --- | --- | --- | --- | --- | --- | --- | --- | --- | --- | --- | --- | --- | --- | --- | --- |
| GGGTGG [SEQ ID NO:25] | 1.0 +/− 0.1 fold increase | 20.9 +/− 18.0 fold increase | 11.6 +/− 1.2 fold increase | 13.2 +/− 11.5 fold increase | 18% | 35% | 18% | 2.5 +/− 1.5 fold increase | 13.5 +/− 8.4 fold increase | 11.7 +/− 6.7 fold increase | 3.1x | 2.3x and 2.0x | 5% | 60% | 14% | 4% and 1% | 15% | ↑ IL-12 (fold increase treated vs control cells) ([5]; listed as GoGoGoToGoGo): 2.0 x; % INHIBITION of Jurkat proliferation, 5-Fluorouracil 0.1 μg/ml ([6]; 5-fluorouracil 0.1 μg/ml, alone or with sequence at 1.0 μg/ml): 10%; % INHIBITION of Jurkat proliferation, 5-Fluorouracil 1.0 μg/ml ([6]; 5-fluorouracil 1.0 μg/ml, alone or with sequence at 1.0 μg/ml): 21%; % INHIBITION of Jurkat proliferation, 5-Fluorouracil 10.0 μg/ml ([6]; 5-fluorouracil 10.0 μg/ml, alone or with sequence at 1.0 μg/ml): 40%; relative potency versus AGT SEQ ID NO:49 ([6]; Jurkat proliferation, PHARM/PCS-4 Software): 3.4 times; % INHIBITION of Jurkat proliferation, Cisplatin 0.1 μg/ml ([6]; cisplatin 0.1 μg/ml, alone or with sequence at 1.0 μg/ml): 14%; % INHIBITION of Jurkat proliferation, Cisplatin 1.0 μg/ml ([6]; cisplatin 1.0 μg/ml, alone or with sequence at 1.0 μg/ml): 38%; % INHIBITION of Jurkat proliferation, Cisplatin 10.0 μg/ml ([6]; cisplatin 10.0 μg/ml, alone or with sequence at 1.0 μg/ml): 76%; potentiation of antineoplastic effect of 5-fluorouracil on Jurkat T cell proliferation ([6]; sequence 1.0 μg/ml, 0.1 and 1.0 μg/ml 5-fluorouracil): potentiated; potentiation of antineoplastic effect of cisplatin on Jurkat T cell proliferation ([6]; sequence 1.0 μg/ml, 0.1 and 1.0 μg/ml cisplatin): potentiated; % INHIBITION of Jurkat proliferation, 5-Fluorouracil 0.0 μg/ml ([6]; sequence at 1.0 μg/ml, 5-fluorouracil 0.0 μg/ml): 0%; % INHIBITION of Jurkat proliferation, Cisplatin 0.0 μg/ml ([6]; sequence at 1.0 μg/ml, cisplatin 0.0 μg/ml): 0%; melting temperature (Tm) [7]: 2.5 °C |
| GTGTGT [SEQ ID NO:10] | 2.0 +/− 1.6 fold increase | 9.8 +/− 14.2 fold increase | 1.0 +/− 0.1 fold increase | 4.0 +/− 6.3 fold increase | 15% | 13% | −4% | 4.0 +/− 2.1 fold increase | 14.0 +/− 8.5 fold increase | 12.9 +/− 6.4 fold increase | 5.0x | 2.2x | 2% | 44% and 48% | 15% | −2% | 11% |  |
| TTGTTT [SEQ ID NO:26] | 1.5 +/− 0.9 fold increase | 5.8 +/− 8.0 fold increase | 1.0 +/− 0.1 fold increase | 1.6 +/− 1.3 fold increase |  | 16% | 22% | 1.4 +/− 0.9 fold increase | 12.3 +/− 8.5 fold increase | 7.5 +/− 4.6 fold increase | 5.3 x | 3.5x and 3.8x | −2% | 34% |  |  | 1% |  |

From US20070213291A1, “Therapeutically useful synthetic oligonucleotides” (priority 1999, published 2007)
